Reference: ChEMBL document CHEMBL4715890, “Flavonoids from Sophora alopecuroides L. improve palmitate-induced insulin resistance by inhibiting PTP1B activity in vitro” (Bioorg Med Chem Lett, 2021)
Converted amounts (≈) assume the structure as drawn. The source made the active and inactive calls. No cut-off for these calls is given here.

What was measured:
[1] = target: T1, Tyrosine-protein phosphatase non-receptor type 1 (Mus musculus) (UniProt P35821); assay: Inhibition of PTP1B in mouse PA-induced insulin-resistance C2C12 cells assessed as increase in glucose consumption at 1 ug/ml in presence of insulin after 16 hrs; type: cell-based; conditions: dose 1.0 µg/ml
T1 sequence (whole entry): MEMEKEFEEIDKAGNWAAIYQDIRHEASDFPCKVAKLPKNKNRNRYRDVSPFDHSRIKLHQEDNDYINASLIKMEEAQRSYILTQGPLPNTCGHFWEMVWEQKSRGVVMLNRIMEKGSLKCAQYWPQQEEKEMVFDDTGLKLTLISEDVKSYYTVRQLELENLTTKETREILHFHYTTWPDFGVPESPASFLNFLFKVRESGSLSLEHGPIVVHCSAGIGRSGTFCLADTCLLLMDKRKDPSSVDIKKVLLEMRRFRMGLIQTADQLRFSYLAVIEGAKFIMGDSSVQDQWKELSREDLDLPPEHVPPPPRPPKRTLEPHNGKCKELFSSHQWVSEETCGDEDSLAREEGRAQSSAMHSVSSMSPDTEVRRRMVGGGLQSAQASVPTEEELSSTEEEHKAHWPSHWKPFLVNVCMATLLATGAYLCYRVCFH

[2] = tested on: C2C12; assay: Induction of glucose uptake in mouse C2C12 cells at 1 ug/ml in presence of insulin; type: functional, cell-based; conditions: dose 1.0 µg/ml
[3] = tested on: C2C12; assay: Induction of glucose uptake in mouse C2C12 cells at 1 ug/ml; type: functional, cell-based
[4] = tested on: C2C12; assay: Cytotoxicity against mouse C2C12 cells assessed as reduction in cell viability by MTT assay; type: cell-based; conditions: for IC50: Mus musculus, C2C12; for IC10: mouse, c2c12
[5] = target: T2, Tyrosine-protein phosphatase non-receptor type 1 (Homo sapiens) (UniProt P18031); assay: Inhibition of PTP1B (unknown origin) at 0.1 ug/ml relative to control; conditions: dose 0.1 µg/ml
T2 sequence (whole entry): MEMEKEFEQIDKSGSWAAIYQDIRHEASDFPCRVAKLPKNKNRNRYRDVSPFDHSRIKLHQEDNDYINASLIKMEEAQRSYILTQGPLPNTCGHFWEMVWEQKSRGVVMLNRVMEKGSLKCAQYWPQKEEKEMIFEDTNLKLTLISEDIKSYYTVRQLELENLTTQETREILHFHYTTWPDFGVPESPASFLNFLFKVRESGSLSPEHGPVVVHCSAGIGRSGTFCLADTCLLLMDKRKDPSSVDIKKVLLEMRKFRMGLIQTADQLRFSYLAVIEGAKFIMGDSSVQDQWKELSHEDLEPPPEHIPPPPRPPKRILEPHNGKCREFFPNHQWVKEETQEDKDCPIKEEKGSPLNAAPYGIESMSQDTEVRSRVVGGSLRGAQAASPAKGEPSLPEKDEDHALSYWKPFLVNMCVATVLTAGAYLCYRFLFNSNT

SMILES	Glucose consumption increase [1]	Activity [2]	Activity [3]	IC50 [4] [µg/mL]	IC10 [4] [µg/mL]	inhibition [5] [%]
O=c1c(-c2ccc3c(c2)OCO3)coc2cc(O)ccc12 [PSEUDOBAPTOGENIN]	Active	Active	Active	12.1 (≈ 42.8 µM)	3.49 (≈ 12.4 µM)	–
O=c1c(-c2ccc3c(c2)OCO3)coc2cc(O[C@@H]3O[C@H](CO)[C@@H](O)[C@H](O)[C@H]3O)ccc12	–	–	–	13.5 (≈ 30.3 µM)	4.18 (≈ 9.41 µM)	–
O=c1c(O)c(-c2ccc(O)c(O)c2)oc2cc(O)cc(O)c12 [QUERCETIN]	–	–	–	30.8 (≈ 102 µM)	9.23 (≈ 30.5 µM)	–
O=C(/C=C/c1ccc(O)cc1)c1ccc(O)cc1O [ISOLIQUIRITIGENIN]	–	Active	Active	26.3 (≈ 103 µM)	7.43 (≈ 29 µM)	–
O=C(/C=C/c1ccccc1)c1ccc(O)cc1O [2',4'-DIHYDROXYCHALCONE]	–	Active	Active	32.3 (≈ 134 µM)	6.14 (≈ 25.6 µM)	–
COc1ccc(-c2cc(=O)c3c(O)cc(O[C@@H]4O[C@H](CO[C@@H]5O[C@@H](C)[C@H](O)[C@@H](O)[C@H]5O)[C@@H](O)[C@H](O)[C@H]4O)cc3o2)cc1O [DIOSMIN]	–	–	–	20 (≈ 32.8 µM)	5.14 (≈ 8.45 µM)	–
COc1cc(/C=C/C(=O)OC[C@H]2O[C@@H](Oc3ccc4c(=O)c(-c5ccc(O)c(O)c5)coc4c3)[C@H](O)[C@@H](O)[C@@H]2O)ccc1O	Active	Active	Active	24.3 (≈ 40 µM)	7.36 (≈ 12.1 µM)	95.2
O=c1c(-c2ccc(O)cc2)coc2cc(O[C@@H]3O[C@H](CO[C@@H]4OC[C@@H](O)[C@H](O)[C@H]4O)[C@@H](O)[C@H](O)[C@H]3O)cc(O)c12	Active	Active	Active	34.2 (≈ 60.5 µM)	6.07 (≈ 10.8 µM)	88.8
O=c1cc(-c2ccc(O)cc2)oc2cc(O)cc(O)c12 [APIGENIN]	–	Active	Active	26.6 (≈ 98.4 µM)	4.96 (≈ 18.4 µM)	–
O=C(/C=C/c1ccc(O)c(O)c1)c1ccc(O)cc1O [BUTEIN]	–	–	–	19 (≈ 69.8 µM)	3.99 (≈ 14.7 µM)	–
O=c1cc(-c2ccc(O[C@@H]3O[C@H](CO)[C@@H](O)[C@H](O)[C@H]3O)c(O)c2)oc2cc(O)ccc12	Active	Active	Active	29 (≈ 67.1 µM)	5.85 (≈ 13.5 µM)	68.9
O=C(/C=C/c1ccc(O)c(O)c1)OC[C@H]1O[C@@H](Oc2ccc3c(=O)c(-c4ccc(O)cc4)coc3c2)[C@H](O)[C@@H](O)[C@@H]1O	Active	Active	Active	31.2 (≈ 54 µM)	8.81 (≈ 15.2 µM)	81.6
O=c1cc(-c2ccc(O)c(O)c2)oc2cc(O[C@@H]3O[C@H](CO)[C@@H](O)[C@H](O)[C@H]3O)ccc12	Active	Active	Active	40 (≈ 92.6 µM)	10.07 (≈ 23.3 µM)	68.9
COc1cc(O)c2c(=O)c(-c3ccc(O)cc3)coc2c1 [PRUNETIN]	Active	Active	Active	23.2 (≈ 81.8 µM)	7.19 (≈ 25.3 µM)	–
O=C(/C=C/c1ccc(O)c(O)c1)c1ccc(O[C@@H]2O[C@H](CO)[C@@H](O)[C@H](O)[C@H]2O)cc1O	–	–	–	20.8 (≈ 47.9 µM)	4.39 (≈ 10.1 µM)	–
COc1cc(O)c2c(=O)c(-c3ccc(O)c(OC)c3)coc2c1	Active	Active	Active	32.5 (≈ 103 µM)	6.93 (≈ 22 µM)	70.1
